Measured values taken from the supplement of paper PMC10307832.

Tests used:
Test in all cases: relative viability (nuclei count vs DMSO), 5 days (fraction); higher = more cells survive
[1] = tested on: H3255
In short: (§1)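 After 5 days of treatment, lung cancer cells in 1536-well plates were fixed and stained in a single step (final 0.05% Triton X-100, 1% formaldehyde, 1 ug/ml Hoechst) and their nuclei counted on 4× images. Treatment had been applied by pin tool the day after seeding as one drug alone or as a fixed anchor-drug dose with five library-drug doses (not always all listed) in √10 steps. Relative viability is the nuclei count of treated wells divided by that of vehicle wells, and values are medians of duplicate plates.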

[2] = tested on: PC-14
In short: as §1

[3] = tested on: NCI-H1355
In short: as §1

[4] = tested on: NCI-H596
In short: as §1

[5] = tested on: CAL-12T
In short: as §1

[6] = tested on: NCI-H1793
In short: as §1

[7] = tested on: NCI-H838
In short: as §1

[8] = tested on: NCI-H2087
In short: as §1

[9] = tested on: NCI-H23
In short: as §1

[10] = tested on: NCI-H727
In short: as §1

[11] = tested on: NCI-H1792
In short: as §1

[12] = tested on: UMC-11
In short: as §1

[13] = tested on: NCI-H2023
In short: as §1

[14] = tested on: NCI-H1651
In short: as §1

[15] = tested on: NCI-H2009
In short: as §1

[16] = tested on: NCI-H522
In short: as §1

[17] = tested on: NCI-H358
In short: as §1

[18] = tested on: SK-MES-1
In short: as §1

[19] = tested on: NCI-H1666
In short: as §1

[20] = tested on: A-427
In short: as §1

[21] = tested on: SW 1573
In short: as §1

[22] = tested on: NCI-H1437
In short: as §1

C=C1C(=O)O[C@@H](CCCCCCCC)[C@@H]1C(=O)O [C-75] + CC(=O)Nc1cccc(-n2c(=O)n(C3CC3)c(=O)c3c(Nc4ccc(I)cc4F)n(C)c(=O)c(C)c32)c1 [Trametinib] (partner 0.02 µM)
relative viability ([1]; first compound 0.08 µM): 0.66 | relative viability ([1]; first compound 0.253 µM): 0.613 | relative viability ([1]; first compound 0.8 µM): 0.647 | relative viability ([1]; first compound 2.53 µM): 0.543 | relative viability ([1]; first compound 8 µM): 0.666 | relative viability ([2]; first compound 0.08 µM): 0.902 | relative viability ([2]; first compound 0.253 µM): 0.811 | relative viability ([2]; first compound 0.8 µM): 0.724 | relative viability ([2]; first compound 2.53 µM): 0.78 | relative viability ([2]; first compound 8 µM): 0.731 | relative viability ([3]; first compound 0.08 µM): 0.436 | relative viability ([3]; first compound 0.253 µM): 0.406 | relative viability ([3]; first compound 0.8 µM): 0.384 | relative viability ([3]; first compound 2.53 µM): 0.343 | relative viability ([3]; first compound 8 µM): 0.448 | relative viability ([4]; first compound 0.08 µM): 1.02 | relative viability ([4]; first compound 0.253 µM): 0.837 | relative viability ([4]; first compound 0.8 µM): 0.815 | relative viability ([4]; first compound 2.53 µM): 0.722 | relative viability ([4]; first compound 8 µM): 0.744 | relative viability ([5]; first compound 0.08 µM): 0.373 | relative viability ([5]; first compound 0.253 µM): 0.455 | relative viability ([5]; first compound 0.8 µM): 0.31 | relative viability ([5]; first compound 2.53 µM): 0.301 | relative viability ([5]; first compound 8 µM): 0.313 | relative viability ([6]; first compound 0.08 µM): 0.356 | relative viability ([6]; first compound 0.253 µM): 0.509 | relative viability ([6]; first compound 2.53 µM): 0.356 | relative viability ([6]; first compound 8 µM): 0.409 | relative viability ([7]; first compound 0.08 µM): 0.524 | relative viability ([7]; first compound 0.253 µM): 0.292 | relative viability ([7]; first compound 0.8 µM): 0.456 | relative viability ([7]; first compound 2.53 µM): 0.422 | relative viability ([7]; first compound 8 µM): 0.388 | relative viability ([8]; first compound 0.08 µM): 0.247 | relative viability ([8]; first compound 0.253 µM): 0.24 | relative viability ([8]; first compound 0.8 µM): 0.179 | relative viability ([8]; first compound 2.53 µM): 0.16 | relative viability ([8]; first compound 8 µM): 0.212 | relative viability ([9]; first compound 0.08 µM): 0.361 | relative viability ([9]; first compound 0.253 µM): 0.436 | relative viability ([9]; first compound 0.8 µM): 0.343 | relative viability ([9]; first compound 2.53 µM): 0.291 | relative viability ([9]; first compound 8 µM): 0.321 | relative viability ([10]; first compound 0.08 µM): 0.377 | relative viability ([10]; first compound 0.253 µM): 0.378 | relative viability ([10]; first compound 0.8 µM): 0.448 | relative viability ([10]; first compound 2.53 µM): 0.393 | relative viability ([10]; first compound 8 µM): 0.352 | relative viability ([11]; first compound 0.08 µM): 0.474 | relative viability ([11]; first compound 0.253 µM): 0.574 | relative viability ([11]; first compound 0.8 µM): 0.438 | relative viability ([11]; first compound 2.53 µM): 0.341 | relative viability ([11]; first compound 8 µM): 0.452 | relative viability ([12]; first compound 0.08 µM): 0.723 | relative viability ([12]; first compound 0.253 µM): 0.841 | relative viability ([12]; first compound 0.8 µM): 0.659 | relative viability ([12]; first compound 2.53 µM): 0.581 | relative viability ([12]; first compound 8 µM): 0.526 | relative viability ([13]; first compound 0.08 µM): 0.527 | relative viability ([13]; first compound 0.253 µM): 0.662 | relative viability ([13]; first compound 0.8 µM): 0.531 | relative viability ([13]; first compound 2.53 µM): 0.209 | relative viability ([13]; first compound 8 µM): 0.483 | relative viability ([14]; first compound 0.08 µM): 0.815 | relative viability ([14]; first compound 0.253 µM): 0.802 | relative viability ([14]; first compound 0.8 µM): 0.862 | relative viability ([14]; first compound 2.53 µM): 0.515 | relative viability ([14]; first compound 8 µM): 0.892 | relative viability ([15]; first compound 0.08 µM): 0.277 | relative viability ([15]; first compound 0.253 µM): 0.249 | relative viability ([15]; first compound 0.8 µM): 0.282 | relative viability ([15]; first compound 2.53 µM): 0.262 | relative viability ([15]; first compound 8 µM): 0.332 | relative viability ([16]; first compound 0.08 µM): 0.784 | relative viability ([16]; first compound 0.253 µM): 0.61 | relative viability ([16]; first compound 0.8 µM): 0.747 | relative viability ([16]; first compound 2.53 µM): 0.845 | relative viability ([16]; first compound 8 µM): 0.604 | relative viability ([17]; first compound 0.08 µM): 0.158 | relative viability ([17]; first compound 0.253 µM): 0.13 | relative viability ([17]; first compound 0.8 µM): 0.151 | relative viability ([17]; first compound 8 µM): 0.121 | relative viability ([18]; first compound 0.08 µM): 0.538 | relative viability ([18]; first compound 0.253 µM): 0.542 | relative viability ([18]; first compound 0.8 µM): 0.48 | relative viability ([18]; first compound 2.53 µM): 0.478 | relative viability ([18]; first compound 8 µM): 0.438 | relative viability ([19]; first compound 0.08 µM): 0.869 | relative viability ([19]; first compound 0.253 µM): 1.01 | relative viability ([19]; first compound 0.8 µM): 0.807 | relative viability ([19]; first compound 8 µM): 0.728 | relative viability ([20]; first compound 0.08 µM): 0.78 | relative viability ([20]; first compound 0.253 µM): 0.84 | relative viability ([20]; first compound 0.8 µM): 0.655 | relative viability ([20]; first compound 2.53 µM): 0.665 | relative viability ([20]; first compound 8 µM): 0.701 | relative viability ([21]; first compound 0.08 µM): 0.586 | relative viability ([21]; first compound 0.253 µM): 0.596 | relative viability ([21]; first compound 0.8 µM): 0.547 | relative viability ([21]; first compound 2.53 µM): 0.553 | relative viability ([21]; first compound 8 µM): 0.557 | relative viability ([22]; first compound 0.08 µM): 0.514 | relative viability ([22]; first compound 0.253 µM): 0.699 | relative viability ([22]; first compound 0.8 µM): 0.454 | relative viability ([22]; first compound 8 µM): 0.586
